The text below walks through data of ChEMBL document CHEMBL1132118, “Structure-based design, synthesis, and biological evaluation of irreversible human rhinovirus 3C protease inhibitors. 3. Structure-activity studies of ketomethylene-containing peptidomimetics” (J Med Chem, 1999).

Format in all cases: functional
Assay [1] in a line: The 50% cytotoxic concentration was calculated as the concentration of the drug that decreased the percentage of formazan produced in drug-treated,uninfected cells to 50% of that produced in drug free uninfected cells on serotype 14.
Assay [2] has as its target T1, Human rhinovirus A protease (Human rhinovirus sp.) (UniProt Q4U254).
T1 sequence (whole entry): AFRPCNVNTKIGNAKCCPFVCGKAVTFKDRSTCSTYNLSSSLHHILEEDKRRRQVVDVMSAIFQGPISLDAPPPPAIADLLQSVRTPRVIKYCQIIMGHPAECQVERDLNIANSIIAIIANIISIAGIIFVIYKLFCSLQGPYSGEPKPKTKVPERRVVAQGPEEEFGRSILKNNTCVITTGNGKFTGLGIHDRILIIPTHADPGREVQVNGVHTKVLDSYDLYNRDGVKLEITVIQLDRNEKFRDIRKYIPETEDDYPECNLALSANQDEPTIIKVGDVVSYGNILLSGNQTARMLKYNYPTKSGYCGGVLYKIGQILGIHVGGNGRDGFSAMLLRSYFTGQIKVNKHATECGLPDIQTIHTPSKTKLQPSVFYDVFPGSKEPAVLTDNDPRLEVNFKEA
Put plainly: The EC90 was calculated as the concentration of drug that increased the percentage of formazan production in drug treated, virus infected cells to 50% of that produced by drug free uninfected cells on human rhinovirus-10.

Assay [3] has as its target T1, Human rhinovirus A protease (Human rhinovirus sp.). Put plainly: The EC90 was calculated as the concentration of drug that increased the percentage of formazan production in drug treated, virus infected cells to 50% of that produced by drug free uninfected cells on human rhinovirus-2.
For assay [4] the target is unchanged. Put plainly: The EC90 was calculated as the concentration of drug that increased the percentage of formazan production in drug treated, virus infected cells to 50% of that produced by drug free uninfected cells on human rhinovirus-14.
Assay [5] shares this target. Put plainly: The EC90 was calculated as the concentration of drug that increased the percentage of formazan production in drug treated, virus infected cells to 50% of that produced by drug free uninfected cells on human rhinovirus-1A.

On to `CCOC(=O)/C=C/[C@H](CCC(N)=O)NC(=O)[C@@H](CC(=O)[C@@H](NC(=O)SC1CCCC1)C(C)C)Cc1ccccc1`, for which the CC50 in assay [1] was over 100 µM.
The same measure, in the same setting: next, `CCOC(=O)/C=C/[C@H](CCC(N)=O)NC(=O)[C@@H](CC(=O)[C@@H](NC(=O)SC1CCCC1)C(C)C)Cc1ccc(C)cc1`: over 100 µM.
In the case of `CCOC(=O)/C=C/[C@H](CCC(N)=O)NC(=O)[C@@H](CC(=O)[C@@H](NC(=O)SC1CCCC1)C(C)C)Cc1ccc(F)cc1`, the EC90 was 0.25 µM in assay [2], 0.25 µM in assay [3], 0.1 µM in assay [4] and 0.2 µM in assay [5]. Besides, the CC50 in assay [1] is over 100 µM.
Take `CCOC(=O)/C=C/[C@H](CCC(N)=O)NC(=O)[C@@H](CC(=O)[C@H](CC(C)C)NC(=O)OCc1ccccc1)Cc1ccccc1`: the CC50 in assay [1] was over 320 µM.
Regarding `CCOC(=O)/C=C/[C@H](CCC(N)=O)NC(=O)[C@@H](CC(=O)[C@H](Cc1ccccc1)NC(=O)SC1CCCC1)Cc1ccc(C)cc1`, in assay [1], the CC50 is over 100 µM.
Still for that read-out and setting: under `CCOC(=O)/C=C/[C@H](CCC(N)=O)NC(=O)[C@@H](CC(=O)[C@H](CC(C)C)NC(=O)SC1CCCC1)Cc1ccccc1` stands over 100 µM.
With `CCOC(=O)/C=C/[C@H](CCC(N)=O)NC(=O)[C@H](Cc1ccc(F)cc1)NC(=O)[C@@H](NC(=O)SC1CCCC1)C(C)C`, the EC90 was 2.5 µM in assay [2], 5.4 µM in assay [3], 1.8 µM in assay [4] and 2.5 µM in assay [5].
Consider `CCOC(=O)/C=C/[C@H](CCC(N)=O)NC(=O)[C@H](Cc1ccccc1)NC(=O)[C@H](CC(C)C)NC(=O)OCc1ccccc1`, for which, in assay [1], the CC50 was over 320 µM.
In the case of `CCOC(=O)/C=C/[C@H](CCC(N)=O)NC(=O)[C@@H](CC(=O)[C@@H](NC(=O)SCc1ccccc1)C(C)C)Cc1ccccc1`, the CC50 in assay [1] was over 100 µM.
Same read-out and setting: under `CCOC(=O)/C=C/[C@H](CCC(N)=O)NC(=O)[C@@H](CC(=O)[C@H](CC(C)C)NC(=O)SC1CCCC1)Cc1ccc(F)cc1` stands over 100 µM.
`CCOC(=O)/C=C/[C@H](CCC(N)=O)NC(=O)[C@@H](CC(=O)[C@H](CC(C)C)NC(=O)SC1CCCC1)Cc1ccc(C)cc1`: the CC50 in assay [1] was over 100 µM.
Consider `CCOC(=O)/C=C/[C@H](CCC(N)=O)NC(=O)[C@@H](CC(=O)[C@@H](NC(=O)c1cc(C)on1)C(C)C)Cc1ccc(F)cc1`, for which the EC90 in assay [2] was 0.79 µM; in assay [4], 0.32 µM.
Turning to `CCOC(=O)/C=C/[C@H](CCC(N)=O)NC(=O)[C@@H](CC(=O)[C@@H](NC(=O)SC1CCCC1)C(C)(C)C)Cc1ccccc1`, the CC50 in assay [1] was over 100 µM.
The same measure, in the same setting: next, `CCOC(=O)/C=C/[C@H](CCC(N)=O)NC(=O)[C@@H](CC(=O)[C@H](Cc1ccccc1)NC(=O)SC1CCCC1)Cc1ccc(F)cc1`: over 100 µM.
In the case of `CCOC(=O)/C=C/[C@H](CCC(N)=O)NC(=O)[C@@H](CC(=O)[C@@H](NC(=O)SC1CCCC1)C(C)C)Cc1ccc(C(F)(F)F)cc1`, the CC50 in assay [1] is over 100 µM.
On the same count and under the same terms, next, `CCOC(=O)/C=C/[C@H](CCC(N)=O)NC(=O)[C@@H](CC(=O)[C@H](CC(C)C)NC(=O)SCc1ccccc1)Cc1ccccc1`: over 100 µM.

As a reminder, the CC50 is the concentration that lowers cell viability or growth by half. As usually defined, the EC90 is the concentration at which the effect reaches the 90% level.
